The numbers were not newly measured in paper PMC2946453 (Journal of pharmaceutical and biomedical analysis, 2010), which cites them from elsewhere.

Where two headings read alike, the source gives them in different places.

In one data set the test system is human COX-2. Particulars: read-out: IC50 COX-2.
For data set [1], the system named is COX-1. Particulars: read-out: IC50 COX-1; bovine aortic coronary endothelial cells.
For data set [2], the system named is COX-1. The settings on record: read-out: IC50 COX-1; form of COX not mentioned.
The test system of a further data set is COX-2. The settings on record: read-out: IC50 COX-2; form of COX not mentioned.
The target of a further data set is T1, ovine COX-1 (Ovis aries, UniProt P05979).
T1 sequence (P05979 25-600): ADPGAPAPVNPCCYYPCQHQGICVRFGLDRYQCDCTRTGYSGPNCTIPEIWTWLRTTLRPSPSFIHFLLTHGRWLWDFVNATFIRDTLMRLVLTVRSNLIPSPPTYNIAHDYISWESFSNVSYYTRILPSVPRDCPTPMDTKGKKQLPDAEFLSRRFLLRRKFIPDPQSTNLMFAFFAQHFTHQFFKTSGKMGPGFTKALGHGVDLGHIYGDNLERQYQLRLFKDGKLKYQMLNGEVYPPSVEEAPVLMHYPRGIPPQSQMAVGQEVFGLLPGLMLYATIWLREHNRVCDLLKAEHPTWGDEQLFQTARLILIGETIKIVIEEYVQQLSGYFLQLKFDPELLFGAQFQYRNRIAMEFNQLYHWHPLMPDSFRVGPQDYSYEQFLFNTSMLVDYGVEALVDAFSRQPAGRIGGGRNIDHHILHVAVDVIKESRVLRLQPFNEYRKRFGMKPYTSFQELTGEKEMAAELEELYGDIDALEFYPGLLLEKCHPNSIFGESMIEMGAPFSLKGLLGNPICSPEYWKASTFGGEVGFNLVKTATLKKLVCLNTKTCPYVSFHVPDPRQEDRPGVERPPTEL
Particulars: read-out: Km ovine COX-1; radiolabeled arachidonic acid.

Usually IC50 stands for the concentration needed to halve the response being measured. As for `COc1ccc2c(c1)c(CC(=O)O)c(C)n2C(=O)c1ccc(Cl)cc1` [Indomethacin], the 50% inhibitory concentration (IC50) with human COX-2 is […]. In the case of `O=C(O)Cc1ccccc1Nc1c(Cl)cccc1Cl` [Diclofenac], the half-maximal inhibitory concentration (IC50) in the data set on COX-1 [1] is […]. As to `Oc1ccc(/C=C/c2cc(O)cc(O)c2)cc1` [Resveratrol], the results for the IC50 in the data set with COX-1 [2] and in the data set on COX-2 were 830 ± 440 nM and 990 ± 400 nM, respectively. Broadly, the Km is the concentration of substrate that gives half-maximal velocity. In the case of `CCCCC/C=C\C/C=C\C/C=C\C/C=C\CCCC(=O)O` [arachidonic acid], the Km on ovine COX-1 is 3.7 ± 0.5 µM.
